# Test system: adults with plaque psoriasis
# Assay: Long-term extension study (PSOARING 3): % BSA affected
# Assay type: in vivo, human
# Description: The % BSA affected is an estimate of the percentage of total involved skin with psoriasis. For the purpose of clinical estimation, the total palmar surface of the subject's palm and digits was assumed to be approximately equivalent to 1% BSA. The % BSA affected by psoriasis was evaluated (from 0% to 100%). Details on calculation of approximate % BSA involvement in each subject (total and individual) can be found in Appendix 2 of the protocol. Percent BSA is a static assessment made without reference to previous scores.
# At Screening, Baseline, and for all efficacy assessments, lesions on the subject's scalp, palms, fingernails, toenails, and soles were not included in the calculation of % BSA affected as these areas were excluded from the efficacy analyses.
# [1] = Week 16 LOCF, Tapinarof (Pivotal)
# [2] = Week 16 LOCF, Vehicle (Pivotal)
# [3] = Week 16 OC, Tapinarof (Pivotal)
# [4] = Week 40 LOCF, Tapinarof (Pivotal)
# [5] = Week 40 LOCF, Vehicle (Pivotal)
# [6] = Week 40 OC, Tapinarof (Pivotal)
smiles,measurement,setting,value
CC(C)c1c(O)cc(/C=C/c2ccccc2)cc1O [Tapinarof Cream 1%],"% BSA affected, Observed, Mean","Baseline, Overall",4.65 % BSA
same,"% BSA affected, Observed, Median","Baseline, Overall",3.00 % BSA
same,"% BSA affected, Observed, Mean","Baseline, Tapinarof (Pivotal)",3.31 % BSA
same,"% BSA affected, Observed, Median","Baseline, Tapinarof (Pivotal)",2.00 % BSA
same,"% BSA affected, CFBL, Mean","Week 16 LOCF, Overall",−1.85 % BSA
same,"% BSA affected, CFBL, Median","Week 16 LOCF, Overall",−0.96 % BSA
same,"% BSA affected, Observed, Mean","Week 16 LOCF, Overall",2.82 % BSA
same,"% BSA affected, Observed, Median","Week 16 LOCF, Overall",1.20 % BSA
same,"% BSA affected, Percent CFBL, Mean","Week 16 LOCF, Overall",−20.99%
same,"% BSA affected, Percent CFBL, Median","Week 16 LOCF, Overall",−46.13%
same,"% BSA affected, CFBL, Mean",[1],−0.77 % BSA
same,"% BSA affected, CFBL, Median",[1],−0.20 % BSA
same,"% BSA affected, Observed, Mean",[1],2.54 % BSA
same,"% BSA affected, Observed, Median",[1],1.00 % BSA
same,"% BSA affected, Percent CFBL, Mean",[1],−5.67%
same,"% BSA affected, Percent CFBL, Median",[1],−33.33%
same,"% BSA affected, CFBL, Mean",[2],−3.96 % BSA
same,"% BSA affected, CFBL, Median",[2],−2.98 % BSA
same,"% BSA affected, Observed, Mean",[2],3.36 % BSA
same,"% BSA affected, Observed, Median",[2],1.80 % BSA
same,"% BSA affected, Percent CFBL, Mean",[2],−47.15%
same,"% BSA affected, Percent CFBL, Median",[2],−63.42%
same,"% BSA affected, CFBL, Mean","Week 16 OC, Overall",−2.11 % BSA
same,"% BSA affected, CFBL, Median","Week 16 OC, Overall",−1.00 % BSA
same,"% BSA affected, Observed, Mean","Week 16 OC, Overall",2.28 % BSA
same,"% BSA affected, Observed, Median","Week 16 OC, Overall",1.02 % BSA
same,"% BSA affected, Percent CFBL, Mean","Week 16 OC, Overall",−31.25%
same,"% BSA affected, Percent CFBL, Median","Week 16 OC, Overall",−50.00%
same,"% BSA affected, CFBL, Mean",[3],−0.97 % BSA
same,"% BSA affected, CFBL, Median",[3],−0.23 % BSA
same,"% BSA affected, Observed, Mean",[3],1.97 % BSA
same,"% BSA affected, Observed, Median",[3],1.00 % BSA
same,"% BSA affected, Percent CFBL, Mean",[3],−18.46%
same,"% BSA affected, Percent CFBL, Median",[3],−36.96%
same,"% BSA affected, CFBL, Mean","Week 16 OC, Vehicle (Pivotal)",−4.40 % BSA
same,"% BSA affected, CFBL, Median","Week 16 OC, Vehicle (Pivotal)",−3.18 % BSA
same,"% BSA affected, Observed, Mean","Week 16 OC, Vehicle (Pivotal)",2.89 % BSA
same,"% BSA affected, Observed, Median","Week 16 OC, Vehicle (Pivotal)",1.50 % BSA
same,"% BSA affected, Percent CFBL, Mean","Week 16 OC, Vehicle (Pivotal)",−53.18%
same,"% BSA affected, Percent CFBL, Median","Week 16 OC, Vehicle (Pivotal)",−66.67%
same,"% BSA affected, CFBL, Mean","Week 40 LOCF, Overall",−2.04 % BSA
same,"% BSA affected, CFBL, Median","Week 40 LOCF, Overall",−1.00 % BSA
same,"% BSA affected, Observed, Mean","Week 40 LOCF, Overall",2.63 % BSA
same,"% BSA affected, Observed, Median","Week 40 LOCF, Overall",1.00 % BSA
same,"% BSA affected, Percent CFBL, Mean","Week 40 LOCF, Overall",−16.29%
same,"% BSA affected, Percent CFBL, Median","Week 40 LOCF, Overall",−55.78%
same,"% BSA affected, CFBL, Mean",[4],−0.88 % BSA
same,"% BSA affected, CFBL, Median",[4],−0.30 % BSA
same,"% BSA affected, Observed, Mean",[4],2.44 % BSA
same,"% BSA affected, Observed, Median",[4],1.00 % BSA
same,"% BSA affected, Percent CFBL, Mean",[4],−0.11%
same,"% BSA affected, Percent CFBL, Median",[4],−46.61%
same,"% BSA affected, CFBL, Mean",[5],−4.33 % BSA
same,"% BSA affected, CFBL, Median",[5],−3.30 % BSA
same,"% BSA affected, Observed, Mean",[5],2.99 % BSA
same,"% BSA affected, Observed, Median",[5],1.00 % BSA
same,"% BSA affected, Percent CFBL, Mean",[5],−43.91%
same,"% BSA affected, Percent CFBL, Median",[5],−75.06%
same,"% BSA affected, CFBL, Mean","Week 40 OC, Overall",−2.35 % BSA
same,"% BSA affected, CFBL, Median","Week 40 OC, Overall",−1.50 % BSA
same,"% BSA affected, Observed, Mean","Week 40 OC, Overall",1.85 % BSA
same,"% BSA affected, Observed, Median","Week 40 OC, Overall",0.72 % BSA
same,"% BSA affected, Percent CFBL, Mean","Week 40 OC, Overall",−35.43%
same,"% BSA affected, Percent CFBL, Median","Week 40 OC, Overall",−67.00%
same,"% BSA affected, CFBL, Mean",[6],−0.93 % BSA
same,"% BSA affected, CFBL, Median",[6],−0.49 % BSA
same,"% BSA affected, Observed, Mean",[6],1.75 % BSA
same,"% BSA affected, Observed, Median",[6],0.68 % BSA
same,"% BSA affected, Percent CFBL, Mean",[6],−21.60%
same,"% BSA affected, Percent CFBL, Median",[6],−57.39%
same,"% BSA affected, CFBL, Mean","Week 40 OC, Vehicle (Pivotal)",−5.30 % BSA
same,"% BSA affected, CFBL, Median","Week 40 OC, Vehicle (Pivotal)",−4.49 % BSA
same,"% BSA affected, Observed, Mean","Week 40 OC, Vehicle (Pivotal)",2.07 % BSA
same,"% BSA affected, Observed, Median","Week 40 OC, Vehicle (Pivotal)",0.80 % BSA
same,"% BSA affected, Percent CFBL, Mean","Week 40 OC, Vehicle (Pivotal)",−60.22%

# Source: patent US20220395472A1 (Dermavant Sciences GmbH, priority 2021, published 2022)
